This data set in a line: Cell proliferation (trypan blue) assay in HeLa cells. Format: cell-based. Conditions: human, read-out: reduction in cell viability. How it is done:
200,000 PBMC cells were seeded in a plate (12 well) overnight and treated with 2 mg/mL blank F2 NPs and 150 μL of lipofectamine. After 24 h, cells were stained with trypan blue dye and total live cells were determined by cell counter (Bio-Rad, USA). For cytotoxicity assay in HeLa cells, 50,000 HeLa cells were seeded in plates (24 well) and treated with paclitaxel (PTX) F2 NPs for 24 h, and cell viability was measured by staining with trypan blue dye.

On to `CC(=O)O[C@H]1C(=O)[C@@]2(C)[C@H]([C@H](OC(=O)c3ccccc3)[C@]3(O)C[C@H](OC(=O)[C@H](O)[C@@H](NC(=O)c4ccccc4)c4ccccc4)C(C)=C1C3(C)C)[C@]1(OC(C)=O)CO[C@@H]1C[C@@H]2O` [PTX suspension, paclitaxel], for which the cytotoxicity at 24 h turned out to be 17%.

The values are drawn from US20240350421A1, “Cationic Polymeric Nanoparticles and Their Uses in Treating Diseases” (University of Connecticut, priority 2021, published 2024).
